Test results from ChEMBL document CHEMBL1201862, “PubChem BioAssay data set” (2004).
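Values below derive from 48-hour exposures of cells grown in 96-well plates, with endpoints linearly interpolated between the two concentrations bracketing the appropriate inhibition level. GI50 marks 50% less growth.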 Active and inactive are the calls of the source. Rule as the data show it: active = GI50 up to about 1.1 µM and inactive = higher.

Key:
Assay in all cases: NCI tumour cell line growth inhibition, 48 h
OVCAR-4 = test system: OVCAR-4
SK-OV-3 = test system: SK-OV-3
SNB-75 = test system: SNB-75
SNB-78 = test system: SNB-78
SF-295 = test system: SF-295
SF-539 = test system: SF-539
KM-20L2 = test system: KM-20L2
NCI-H460 = test system: NCI-H460
CAKI-1 = test system: CAKI-1
A549 = test system: A549
HOP-62 = test system: HOP-62
NCI-H226 = test system: NCI-H226
A498 = test system: A498
MOLT-4 = test system: MOLT-4
U-251 = test system: U-251
K562 = test system: K562
UO-31 = test system: UO-31
UACC-257 = test system: UACC-257
EKVX = test system: EKVX
RXF 393 = test system: RXF 393
RPMI-8226 = test system: RPMI-8226
IGROV-1 = test system: IGROV-1
HL-60 = test system: HL-60
M14 = test system: M14
NCI-H23 = test system: NCI-H23
SNB-19 = test system: SNB-19
DMS-114 = test system: DMS-114
RXF 631 = test system: RXF 631
COLO 205 = test system: COLO 205
HOP-18 = test system: HOP-18
SF-268 = test system: SF-268
HT-29 = test system: HT-29
HCT-116 = test system: HCT-116
SK-MEL-5 = test system: SK-MEL-5
KM12 = test system: KM12
SK-MEL-28 = test system: SK-MEL-28
OVCAR-5 = test system: OVCAR-5
ACHN = test system: ACHN
HOP-92 = test system: HOP-92
HCT-15 = test system: HCT-15
786-0 = test system: 786-0
SN12C = test system: SN12C
CCRF-CEM = test system: CCRF-CEM
DMS-273 = test system: DMS-273
SK-MEL-2 = test system: SK-MEL-2
Malme-3M = test system: Malme-3M
LXFL 529 = test system: LXFL 529
HCC 2998 = test system: HCC 2998
DLD-1 = test system: DLD-1
LOX IMVI = test system: LOX IMVI
UACC-62 = test system: UACC-62
OVCAR-3 = test system: OVCAR-3
M19-MEL = test system: M19-MEL
TK-10 = test system: TK-10
OVCAR-8 = test system: OVCAR-8
XF498 = test system: XF498
SW-620 = test system: SW-620
NCI-H522 = test system: NCI-H522
SR = test system: SR

O=C(C(=O)n1ncc(Cl)c(Cl)c1=O)n1ncc(Cl)c(Cl)c1=O
GI50 (OVCAR-4): 19.6 µM (inactive)
GI50 (SK-OV-3): > 53.8 µM (inactive)
GI50 (SNB-75): 40.8 µM (inactive)
GI50 (SNB-78): 28.6 µM (inactive)
GI50 (SF-295): 93.5 µM (inactive)
GI50 (SF-539): 28.8 µM (inactive)
GI50 (KM-20L2): 29.6 µM (inactive)
GI50 (NCI-H460): 45.7 µM (inactive)
GI50 (CAKI-1): 17.7 µM (inactive)
GI50 (A549): 96.8 µM (inactive)
GI50 (HOP-62): > 100 µM (inactive)
GI50 (NCI-H226): > 100 µM (inactive)
GI50 (A498): > 100 µM (inactive)
GI50 (MOLT-4): 14.8 µM (inactive)
GI50 (U-251): 35.7 µM (inactive)
GI50 (K562): 20.3 µM (inactive)
GI50 (UO-31): 48.5 µM (inactive)
GI50 (UACC-257): 19.5 µM (inactive)
GI50 (EKVX): 40.4 µM (inactive)
GI50 (RXF 393): > 10 µM (inactive)
GI50 (RPMI-8226): 4.18 µM (inactive)
GI50 (IGROV-1): 27.4 µM (inactive)
GI50 (HL-60): 5.82 µM (inactive)
GI50 (M14): 25.1 µM (inactive)
GI50 (NCI-H23): 19.8 µM (inactive)
GI50 (SNB-19): > 100 µM (inactive)
GI50 (DMS-114): 27.4 µM (inactive)
GI50 (RXF 631): 38 µM (inactive)
GI50 (COLO 205): 13.9 µM (inactive)
GI50 (HOP-18): 31.8 µM (inactive)
GI50 (SF-268): 42.4 µM (inactive)
GI50 (HT-29): 18.2 µM (inactive)
GI50 (HCT-116): 15.8 µM (inactive)
GI50 (SK-MEL-5): 35.5 µM (inactive)
GI50 (KM12): 27.7 µM (inactive)
GI50 (SK-MEL-28): 25.3 µM (inactive)
GI50 (OVCAR-5): > 100 µM (inactive)
GI50 (ACHN): 16.9 µM (inactive)
GI50 (HOP-92): 23.2 µM (inactive)
GI50 (HCT-15): 17.5 µM
GI50 (786-0): 19.5 µM (inactive)
GI50 (SN12C): 24.4 µM (inactive)
GI50 (CCRF-CEM): 6.85 µM (inactive)
GI50 (DMS-273): 17.9 µM (inactive)
GI50 (SK-MEL-2): 23.3 µM (inactive)
GI50 (Malme-3M): 19.7 µM (inactive)
GI50 (LXFL 529): 14.6 µM (inactive)
GI50 (HCC 2998): 23.3 µM (inactive)
GI50 (DLD-1): 16 µM (inactive)
GI50 (LOX IMVI): 30.1 µM (inactive)
GI50 (UACC-62): 15.1 µM (inactive)
GI50 (OVCAR-3): 27.1 µM (inactive)
GI50 (M19-MEL): 20.4 µM (inactive)
GI50 (TK-10): 27.4 µM (inactive)
GI50 (OVCAR-8): 23.1 µM (inactive)
GI50 (XF498): 26.2 µM (inactive)
GI50 (SW-620): 19.4 µM (inactive)
GI50 (NCI-H522): 10.7 µM (inactive)

COc1cc2c(c(O)c1O)-c1ccc(OC)c(=O)cc1C(NC(C)=O)CC2 (stereo unspecified)
GI50 (OVCAR-4): 27.5 µM (inactive)
GI50 (SK-OV-3): 15 µM (inactive)
GI50 (SNB-75): 2.57 µM (inactive)
GI50 (SNB-78): 4.54 µM (inactive)
GI50 (SF-295): 12.5 µM (inactive)
GI50 (SF-539): 3.2 µM (inactive)
GI50 (KM-20L2): 3.8 µM (inactive)
GI50 (NCI-H460): 25.2 µM (inactive)
GI50 (CAKI-1): 78.5 µM (inactive)
GI50 (A549): 36.4 µM (inactive)
GI50 (HOP-62): 20.5 µM (inactive)
GI50 (NCI-H226): 43.2 µM (inactive)
GI50 (A498): 34.1 µM (inactive)
GI50 (MOLT-4): 5.5 µM (inactive)
GI50 (U-251): 4.88 µM (inactive)
GI50 (K562): 3.64 µM (inactive)
GI50 (UO-31): > 100 µM (inactive)
GI50 (UACC-257): 30.1 µM (inactive)
GI50 (EKVX): 39 µM (inactive)
GI50 (RXF 393): 14.6 µM (inactive)
GI50 (RPMI-8226): 3.86 µM (inactive)
GI50 (IGROV-1): 32.1 µM (inactive)
GI50 (HL-60): 2.21 µM (inactive)
GI50 (M14): 7.41 µM (inactive)
GI50 (NCI-H23): 5.06 µM (inactive)
GI50 (SNB-19): 5.07 µM (inactive)
GI50 (RXF 631): 38 µM (inactive)
GI50 (COLO 205): 3.87 µM (inactive)
GI50 (HOP-18): > 22.1 µM (inactive)
GI50 (SF-268): 5.75 µM (inactive)
GI50 (HT-29): 3.91 µM (inactive)
GI50 (HCT-116): 5.57 µM (inactive)
GI50 (SK-MEL-5): 3.58 µM (inactive)
GI50 (KM12): 3.13 µM (inactive)
GI50 (SK-MEL-28): 24.8 µM (inactive)
GI50 (OVCAR-5): 76.6 µM (inactive)
GI50 (ACHN): 74.6 µM (inactive)
GI50 (HOP-92): 4.59 µM (inactive)
GI50 (HCT-15): > 95.1 µM
GI50 (786-0): 16.6 µM (inactive)
GI50 (SN12C): 12.8 µM (inactive)
GI50 (CCRF-CEM): 3.49 µM (inactive)
GI50 (SR): 5.69 µM (inactive)
GI50 (DMS-273): 5.07 µM (inactive)
GI50 (SK-MEL-2): 3.13 µM (inactive)
GI50 (Malme-3M): 16.5 µM (inactive)
GI50 (LXFL 529): 5.25 µM (inactive)
GI50 (HCC 2998): 8.05 µM (inactive)
GI50 (DLD-1): 29.6 µM (inactive)
GI50 (LOX IMVI): 6.82 µM (inactive)
GI50 (UACC-62): 6.98 µM (inactive)
GI50 (OVCAR-3): 2.4 µM (inactive)
GI50 (M19-MEL): 6.98 µM (inactive)
GI50 (TK-10): 64.3 µM (inactive)
GI50 (OVCAR-8): 15.6 µM (inactive)
GI50 (XF498): 6.18 µM (inactive)
GI50 (SW-620): 5.27 µM (inactive)
GI50 (NCI-H522): 2.42 µM (inactive)
